Assay results from ChEMBL document CHEMBL1201862, “PubChem BioAssay data set” (2004).
Structures can show the parent of a compound that is named as a salt.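 Method: 48-hour compound exposure of cells in 96-well plates, five concentrations, linear interpolation of endpoints. GI50 marks 50% less growth.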 Active and inactive are the calls of the source. No stated cut-off is given here; in the data, active = GI50 up to about 1.1 µM and inactive = higher.

Columns and labels:
Assay in all cases: inhibition of tumour cell growth, NCI panel, 48 h
RXF 393 = test system: RXF 393
OVCAR-5 = test system: OVCAR-5
OVCAR-3 = test system: OVCAR-3
UACC-62 = test system: UACC-62
786-0 = test system: 786-0
SK-MEL-28 = test system: SK-MEL-28
SNB-19 = test system: SNB-19
MOLT-4 = test system: MOLT-4
K562 = test system: K562
A549 = test system: A549
M14 = test system: M14
HCT-116 = test system: HCT-116
SN12C = test system: SN12C
SNB-75 = test system: SNB-75
COLO 205 = test system: COLO 205
MDA-MB-231 = test system: MDA-MB-231
PC-3 = test system: PC-3
NCI-H460 = test system: NCI-H460
SR = test system: SR

Row | SMILES | GI50 (RXF 393) | GI50 (OVCAR-5) | GI50 (OVCAR-3) | GI50 (UACC-62) | GI50 (786-0) | GI50 (SK-MEL-28) | GI50 (SNB-19) | GI50 (MOLT-4) | GI50 (K562) | GI50 (A549) | GI50 (M14) | GI50 (HCT-116) | GI50 (SN12C) | GI50 (SNB-75) | GI50 (COLO 205) | GI50 (MDA-MB-231) | GI50 (PC-3) | GI50 (NCI-H460) | GI50 (SR)
1 | O=[N+]([O-])C(C(Cl)=C(Cl)Cl)=C(N1CCOCC1)N1CCOCC1 | > 100 µM (inactive) | > 100 µM (inactive) | > 100 µM (inactive) | > 100 µM (inactive) | > 100 µM (inactive) | > 100 µM (inactive) | > 100 µM (inactive) | 63.2 µM (inactive) | > 100 µM (inactive) | > 100 µM (inactive) | > 100 µM (inactive) | > 100 µM (inactive) | > 100 µM (inactive) | 1.14 µM (inactive) | > 100 µM (inactive) | > 100 µM (inactive) | > 100 µM (inactive) | – | –
2 | CO[C@@]12C[C@@H](C)[C@]34O[C@H]3C[C@]3(C)O[C@]43CC1=C(C)C(=O)O2 | – | > 100 µM (inactive) | > 100 µM (inactive) | > 100 µM (inactive) | > 100 µM (inactive) | > 100 µM (inactive) | > 100 µM (inactive) | < 0.01 µM (active) | > 100 µM (inactive) | > 100 µM (inactive) | > 100 µM (inactive) | > 100 µM (inactive) | > 100 µM (inactive) | – | > 100 µM (inactive) | > 100 µM (inactive) | > 100 µM (inactive) | > 100 µM (inactive) | –
3 | O=C(O)C(C(C(=O)O)P(=O)(O)O)P(=O)(O)O (stereo not given) | – | > 100 µM (inactive) | > 100 µM (inactive) | > 100 µM (inactive) | > 100 µM (inactive) | > 100 µM (inactive) | > 100 µM (inactive) | > 100 µM (inactive) | > 100 µM (inactive) | > 100 µM (inactive) | > 100 µM (inactive) | > 100 µM (inactive) | – | > 100 µM (inactive) | > 100 µM (inactive) | – | > 100 µM (inactive) | – | > 100 µM (inactive)
4 | O=[N+]([O-])c1cc(Cl)ccc1Sc1ccccc1 | 80.2 µM (inactive) | > 100 µM (inactive) | > 100 µM (inactive) | > 100 µM (inactive) | > 100 µM (inactive) | > 100 µM (inactive) | > 100 µM (inactive) | 56.1 µM (inactive) | > 100 µM (inactive) | > 100 µM (inactive) | > 100 µM (inactive) | 34.3 µM (inactive) | 77.4 µM (inactive) | 20.8 µM (inactive) | > 100 µM (inactive) | > 100 µM (inactive) | > 100 µM (inactive) | 75 µM (inactive) | –
5 | N#CCc1nc(C#N)c(N)o1 | > 100 µM (inactive) | > 100 µM (inactive) | > 100 µM (inactive) | > 100 µM (inactive) | > 100 µM (inactive) | > 100 µM (inactive) | – | > 100 µM (inactive) | – | > 100 µM (inactive) | > 100 µM (inactive) | > 100 µM (inactive) | > 100 µM (inactive) | – | > 100 µM (inactive) | > 100 µM (inactive) | > 100 µM (inactive) | > 100 µM (inactive) | > 100 µM (inactive)
6 | C=CCOC1(CC=C)C(=O)OC2C(O)COC21O (stereo not given) | > 100 µM (inactive) | > 100 µM (inactive) | > 100 µM (inactive) | > 100 µM (inactive) | > 100 µM (inactive) | > 100 µM (inactive) | > 100 µM (inactive) | > 100 µM (inactive) | > 100 µM (inactive) | > 100 µM (inactive) | > 100 µM (inactive) | > 100 µM (inactive) | > 100 µM (inactive) | – | > 100 µM (inactive) | > 100 µM (inactive) | > 100 µM (inactive) | > 100 µM (inactive) | > 100 µM (inactive)
7 | O=Cc1cc2c(cc1-c1c(C=O)ccc3c1OCO3)OCO2 | – | – | > 10 µM (inactive) | > 10 µM (inactive) | > 10 µM (inactive) | > 10 µM (inactive) | > 10 µM (inactive) | > 10 µM (inactive) | > 10 µM (inactive) | > 10 µM (inactive) | > 10 µM (inactive) | > 10 µM (inactive) | > 10 µM (inactive) | > 10 µM (inactive) | > 10 µM (inactive) | > 10 µM (inactive) | > 10 µM (inactive) | – | > 10 µM (inactive)
8 | Cc1c2ccccc2c(/C=N/NC(=O)CSCC(=O)N/N=C/c2c3ccccc3c(C)c3ccccc23)c2ccccc12 | 16.3 µM (inactive) | 38.9 µM (inactive) | 47.5 µM (inactive) | > 64.7 µM (inactive) | 20.7 µM (inactive) | > 60.7 µM (inactive) | 47 µM (inactive) | 27.8 µM (inactive) | 37.9 µM (inactive) | > 64.1 µM (inactive) | > 52.5 µM (inactive) | 55.6 µM (inactive) | 61.2 µM (inactive) | > 27.4 µM (inactive) | – | 31.2 µM (inactive) | > 31.4 µM (inactive) | > 57.7 µM (inactive) | –
9 | Cc1c(NC(=O)CSC(=S)N2CCN(Cc3ccccc3)CC2)c(=O)n(-c2ccccc2)n1C | > 100 µM (inactive) | > 100 µM (inactive) | > 100 µM (inactive) | – | > 100 µM (inactive) | > 100 µM (inactive) | > 100 µM (inactive) | > 100 µM (inactive) | > 100 µM (inactive) | > 100 µM (inactive) | > 100 µM (inactive) | > 100 µM (inactive) | > 100 µM (inactive) | – | > 100 µM (inactive) | > 100 µM (inactive) | > 100 µM (inactive) | > 100 µM (inactive) | > 100 µM (inactive)
10 | Cc1ccc2[nH]c3c(c2c1)C1CCC(C(C)(C)C)CC1C1C(=O)N(c2ccc4c(c2)OCO4)C(=O)C31 (stereo not given) | 2.26 µM (inactive) | 3.61 µM (inactive) | 1.52 µM (inactive) | 10.8 µM (inactive) | 1.63 µM (inactive) | 5.61 µM (inactive) | 2.64 µM (inactive) | 1.81 µM (inactive) | 3.01 µM (inactive) | 2.31 µM (inactive) | 4.7 µM (inactive) | 2.34 µM (inactive) | 2.24 µM (inactive) | – | 3.31 µM (inactive) | 2.29 µM (inactive) | 3.07 µM (inactive) | 1.78 µM (inactive) | 1.91 µM (inactive)
11 | Cc1cc(S(=O)(=O)Nc2nc(N)n(C)n2)c(S)cc1Cl | > 10 µM (inactive) | > 10 µM (inactive) | > 10 µM (inactive) | > 10 µM (inactive) | > 10 µM (inactive) | > 10 µM (inactive) | > 10 µM (inactive) | > 10 µM (inactive) | > 10 µM (inactive) | > 10 µM (inactive) | > 10 µM (inactive) | > 10 µM (inactive) | > 10 µM (inactive) | > 10 µM (inactive) | > 10 µM (inactive) | > 10 µM (inactive) | > 10 µM (inactive) | > 10 µM (inactive) | –
12 | Cn1c(=O)c2nc(/N=N/Nc3nncs3)[nH]c2n(C)c1=O | > 100 µM (inactive) | > 100 µM (inactive) | > 100 µM (inactive) | > 100 µM (inactive) | > 100 µM (inactive) | > 100 µM (inactive) | > 100 µM (inactive) | > 100 µM (inactive) | > 100 µM (inactive) | > 100 µM (inactive) | > 100 µM (inactive) | > 100 µM (inactive) | > 100 µM (inactive) | – | > 100 µM (inactive) | > 100 µM (inactive) | > 100 µM (inactive) | > 100 µM (inactive) | –
13 | COc1cccc(-c2cc(O)c3cc(N4CCOCC4)ccc3n2)c1 | – | 0.151 µM (active) | 0.0201 µM (active) | 0.0258 µM (active) | 0.0411 µM (active) | 0.0748 µM (active) | 0.0543 µM (active) | 0.0391 µM (active) | 0.0212 µM (active) | 0.113 µM (active) | – | 0.0221 µM (active) | 0.0678 µM (active) | 0.0377 µM (active) | 0.0204 µM (active) | 0.13 µM (active) | 0.0364 µM (active) | 0.177 µM (active) | 0.0158 µM (active)
14 | COc1ccc(OC)c(CC2CCc3nc(N)nc(N)c3C2)c1 (stereo not given) | < 0.01 µM (active) | 0.51 µM (active) | 15 µM (inactive) | < 0.0133 µM (active) | 0.0565 µM (active) | 18.8 µM (inactive) | 1.21 µM (inactive) | 1.52 µM (inactive) | > 100 µM (inactive) | < 0.01 µM (active) | 0.342 µM (active) | < 0.01 µM (active) | 14.5 µM (inactive) | 0.828 µM (active) | 10.2 µM (inactive) | 25.4 µM (inactive) | 0.0316 µM (active) | < 0.01 µM (active) | –
15 | C[C@@H]1CC[C@H]2C(C)(C)[C@H]3C[C@@]12CC[C@@]3(C)O [CEDROL] | – | > 100 µM (inactive) | > 100 µM (inactive) | > 100 µM (inactive) | 34.3 µM (inactive) | 60 µM (inactive) | > 100 µM (inactive) | 35.5 µM (inactive) | 92 µM (inactive) | 42.7 µM (inactive) | > 100 µM (inactive) | > 100 µM (inactive) | 26.7 µM (inactive) | > 100 µM (inactive) | > 100 µM (inactive) | > 100 µM (inactive) | > 100 µM (inactive) | 18.2 µM (inactive) | 18.7 µM (inactive)
16 | C#Cc1cccc(Nc2ncnc3cc(OCCOC)c(OCCOC)cc23)c1 [ERLOTINIB HYDROCHLORIDE] | – | > 100 µM (inactive) | – | < 0.01 µM (active) | 8.91 µM (inactive) | > 100 µM (inactive) | < 0.01 µM (active) | – | – | 1.59 µM (inactive) | 6.67 µM (inactive) | 6.05 µM (inactive) | < 0.01 µM (active) | 14.8 µM (inactive) | 4.99 µM (inactive) | 0.0139 µM (active) | 34.5 µM (inactive) | 2.31 µM (inactive) | –
